Experimental data taken from US20260174829A1, “METHODS OF REDUCING TYPE 2 CYTOKINE-MEDIATED INFLAMMATION USING NEUROMEDIN PEPTIDES” (Rutgers, The State University of New Jersey, priority 2018, published 2026).

Columns and labels:
Format in all cases: cell-based, mouse
[1] = system: lung ILC2s; test: Sort-purified lung ILC2 in vitro cultures with Nmb, IL-5/IL-13 ELISA
Method: FIGS. 6A-6E. Nmb suppresses type 2 cytokine responses. (A), Nb-infected mice were treated with PBS or Nmb (i.t.) and ILC2s in the BAL were quantified. (B) Expression of IL-5 and IL-13 in the lungs of PBS or Nmb-treated mice was determined on day 7 post-Nb by Real-time PCR. (C) Eosinophils in the BAL were quantified and (D) worm burdens were determined on day 7 post-Nb infection. ILC2s were sort-purified from the lungs of control or baso-dep mice on day 7 post-Nb and cultured (O/N) with IL-2 and IL-7 in the presence or absence of Nmb and (E) IL-5 and IL-13 levels in culture supernatants were determined by ELISA. P values were determined by two-tailed Student's t-tests.
FIGS. 10A-10B. NMB inhibits type 2 cytokine production from IL-33 activated ILC2. ILC2s were sort-purified from the lungs of Nb-infected mice (day 7) and cultured with survival cytokines (IL-2, IL-7) and in the presence or absence of Nmb and/or IL-33. Following overnight culture, supernatants were tested for the presence of IL-5 (FIG. 10A) and IL-13 (FIG. 10B) by standard ELISA. Statistical comparisons were done using a Student's t-test.
Lung cells were isolated from the lungs of WT or basophil-depleted mice on day 7 post-N. brasiliensis infection. ILC populations (CD45^+Lin^−CD90^+CD127^+) were sort-purified and 10,000 cells were cultured in the presence of 100 ng/mL of IL-2, IL-7 and vehicle (PBS) or 10 μg/mL of Neuromedin B for 24 hours. IL-5 and IL-13 were quantified in cell-free supernatants by ELISA.
These studies illustrate that Nb-induced ILC2 responses are exaggerated in the absence of basophils. […] However, ILC2 responses are also known to be regulated by several other factors following a Nb challenge. Specifically, IL-33 is reported to be a critical regulator of lung ILC2 responses post-Nb infection (24). To address whether altered ILC2 activity in the absence of basophils is a result of reduced availability of IL-33, rather than alterations in NMB-NMBR signaling pathways, ILC2s were sort-purified from the lungs of Nb-infected mice (day 7) and cultured with survival cytokines (IL-2, IL-7) and/or IL-33 and NMB. Following overnight culture, supernatants were tested for the presence of IL-5 and IL-13 by standard ELISA. Statistical comparisons were done using a Student's t-test.

[2] = system: NMBR expression by ILC2s; test: NMBR expression by cultured lung ILC2s, flow cytometry; details: ILC2s day 7 post-Nb, survival and/or activating cytokines, day 4 post-culture
Source text: FIG. 9. Basophils regulate NMBR expression. ILC2s were sort-purified from the lung of Nb-infected mice (day 7) and stimulated with survival cytokines (IL-7 and IL-2) and also with activated basophils, IL-4 or IL-33 overnight. NMBR expression was monitored by flow cytometric analysis post-culture. Data are presented as […] mean fluorescent intensity (GMFI). Statistical comparisons were done using a Student's t-test.
FIG. 14. Prostaglandin E2 upregulates expression of NMBR on lymphocytes. Lung ILC2s were sort-purified from the lungs of mice on day 7 post-Nb and cultured with a combination of survival cytokines (IL-2 and IL-7) and/or activating cytokines (IL-25 and IL-33). In addition, cultures were treated with NMB or prostaglandin E2 (PGE2) and the expression of NMBR was measured by flow cytometric analysis on day 4 post-culture. Statistical analysis was performed using a student's t-test. Negative NMBR staining as determined by an isotype control antibody is also shown (Isot).
NMBR expression by lung ILC2s was reduced when basophils are depleted following an Nb infection. To determine whether basophils directly mediate expression of NMBR or whether they operate through intermediate pathways, ILC2s were sort-purified from the lungs of Nb-infected mice (day 7) and cultured with the survival cytokines IL-2 and IL-7. Additionally, the ILC2s were cultured with activated basophils, IL-4, or IL-33 overnight. NMBR expression was subsequently monitored by flow cytometric analysis post-culture.
To better determine the mechanisms through which basophils regulate expression of NMBR on lymphocytes, ILC2s were cultured with a combination of survival and activating cytokines in the presence or absence of NMB or prostaglandin E2 (PGE2).

[3] = system: ILC2s; test: RNA sequencing of ILC2s cultured overnight with or without Nmb; details: gene expression, NMB treated vs untreated ILC2s
Method: To gain further insight into how NMB might alter lymphocyte activation, ILC2s were sort-purified from the lungs of Nb-infected mice and cultured overnight with survival cytokines (IL-2, IL-7), with or without Nmb. Then, gene expression was evaluated by RNA sequencing analysis. […] This allowed for identification of NMB signaling pathways.

[4] = ILC2s day 7 post-Nb, IL-2 and IL-7, overnight, no IL-33, ELISA
[5] = ILC2s from basophil-deficient Nb-infected mice, overnight with IL-2 and IL-7, ELISA
[6] = ILC2s from basophil-sufficient Nb-infected mice, overnight with IL-2 and IL-7, ELISA

H2N-GNLWATGHFM-amide [Nmb]
type 2 cytokines (IL-5 and IL-13) from IL-33 activated ILC2s ([1]; ILC2s day 7 post-Nb, IL-2, IL-7 and IL-33, overnight, ELISA): significant reductions
IL-5 production from ILC2s at steady-state [1, 4]: significantly reduce
IL-13 production from ILC2s at steady-state [1, 4]: significantly reduce
IL-5 production by ILC2s (significantly reduced or not) [1, 5]: not
IL-13 production by ILC2s (significantly reduced or not) [1, 5]: not
IL-5 production by ILC2s [1, 6]: significantly reduced
IL-13 production by ILC2s [1, 6]: significantly reduced
NMBR expression by ILC2s [2]: failed to upregulate
Fold change Gm10031 [3]: −6.203
Fold change Gm14288 [3]: −25.43
Fold change Hgs_2 [3]: −1.893
Fold change Ighg1 [3]: 253.6
Fold change Ighg2b [3]: 276
Fold change Igkv1-135 [3]: 47.49
Fold change Igkv8-28 [3]: 43.8
Fold change Igkv17-127 [3]: 800.9
Fold change Il1b [3]: 3.263
Fold change Klra7 [3]: −1.984
Fold change Ly6c2 [3]: −2.369
Fold change Mcpt2 [3]: −11.86
Fold change Nkg7 [3]: −1.895
Fold change P2rx7 [3]: −2.149
Fold change Serpinb2 [3]: 5.696
Fold change Sprr2a2 [3]: 37.85
Fold change Tsix [3]: 2.833
Fold change Xist [3]: 3.077
